This note sets out measurements from patent US20240252677A1, “ONE-COMPONENT DELIVERY SYSTEM FOR NUCLEIC ACIDS” (The Trustees of the University of Pennsylvania, priority 2021, published 2024).

The nature of data set [1]: DLS size of dendrimersomes assembled from glycerol-JDs in water at different concentrations. The conditions noted are these: for Dh (nm): size distribution by intensity. It counts as physicochemical. The method, then: Assembly of all eight glycerol-JDs was performed by injection of their ethanol solution (50 μL) into 1 mL of Milli-Q water. The size distribution and structure of resulting DSs were analyzed by DLS (FIG. 84) and cryo-TEM. […] In a certain concentration range the size of DSs increased with the concentration of JDs injected in water or buffer. […] The dimensions of the assemblies were identical when the concentrations of the JDs in water were identical. Sizes of assemblies from mixtures of 1R and 1S in different ratios (1:3, 1:1 and 3:1), were also identical (FIG. 84). […] With the exception of the rotation of polarized light, the physical properties of enantiomers and their racemic mixtures must be identical.
Dynamic light scattering (DLS). Hydrodynamic diameters (Dh) of the self-assemblies of dendrimer molecules and their size distributions were measured on a Malvern Instruments particle sizer (Zetasizer® Nano S, Malvern Instruments, UK) equipped with 4 mW He—Ne laser (633 nm) and avalanche photodiode positioned at […] to the beam and temperature controlled cuvette holder. Experiments were performed at 25° C. in triplicate. The distribution of radius was intensity.

A short description of data set [2]: Cryo-TEM of dendrimersomes from glycerol-JDs, number of vesicle layers. The data set is classed as physicochemical. From the text:
The red numbers in FIG. 85 stand for the unilamellar while yellow numbers for multilamellar DSs. The calculated percentages of unilamellar DSs in the selected images for 2R, 2S and 2rac are 91%, 70% and 13%, respectively. Same trend was found for cryo-TEM of 1R, 1S and 1rac (FIG. 86 through FIG. 88). […] Achiral DSs are all unilamellar.
Cryogenic Transmission Electron Microscopy (Cryo-TEM). Morphologies of the Janus Dendrimer assemblies were characterized by cryo-TEM. Images were acquired on a Carl Zeiss Libra 120 microscope. Samples were prepared by plunge freezing of aqueous dispersion on plasma-treated lacey grids. The vitrified specimens were then transferred to a Gatan-910 cryoholder. The 5 images were recorded at −170° C. with an acceleration voltage of 120 kV. The concentration of JD in the aqueous solution of DSs was 1 mg mL-^1.

The test system of the next data set is HEK293T cells. The experiment in a line: In vitro Luc-mRNA transfection, luciferase luminescence expression in HEK293T cells. The data set is classed as cell-based, human. Further details: unit not given here. The conditions noted are these: CIAJD 4 mg/mL, HEK293T, 125 ng/well. The method, then: In Vitro Transfection Activity of DNPs in Human Embrionic Kidney (HEK) 293T Cells: HEK293T cells were seeded into 96-well plates (20,000 cells/well/200 μL) and cultured for 24 h at 37° C. in 5% CO2 complete cell culture media. Screening experiments were performed with nonoptimized DNPs containing naked nucleoside-modified mRNA (Karikó, et al., Immunity 2005, 23, 165-175; Pardi, et al., Methods Mol. Biol. 2013, 969, 29-42), of molar mass 664,341 encoding firefly luciferase (mRNA-Luc). A constant concentration of mRNA-Luc of 125 ng/well was used. The transIT (TransIT-mRNA transfection Kit from Mirus Bio) and MC3-based LNPs (MC3: DLin-MC3-DMA, which is the FDA approved LNP for mRNA delivery) were used as positive controls for cell transfection at a concentration of mRNA-Luc of 125 ng/well, identical to that of the tested DNPs. Subsequently cells were cultured for 24 h, the medium was aspirated under reduced pressure by a glass pipette and cells were lysed with 30 μL/well of cell culture lysis reagent (Promega). The luminescence intensity corresponding to the luciferase protein expressed was characterized and analyzed.
In vitro mRNA Delivery: Human embryonic kidney (HEK) 293T cells (American Type Culture Collection) were cultured in Dulbecco's modified Eagle's medium (DMEM) supplemented with 10% inactivated fetal bovine serum (FBS) (Gemini Bio-Products), 2 mM L-glutamine and 100 U/mL penicillin/streptomycin (Life Technologies) (complete medium). For in vitro screening experiments, HEK293T cells were seeded into 96-well plates (20,000 cells/well/200 μL) and cultured for 24 h in at 37° C. and 5% CO2 in complete media. Cell were transfected with IAJDs with encapsulated naked nucleoside-modified mRNA encoding firefly luciferase (mRNA-Luc) with fixed concentration of mRNA-Luc, 125 ng per well. The transIT (TransIT®-mRNA Transfection Kit, Mirus Bio) was used as a positive control for cell transfection, accordingly per manufacturer protocol and added to cells at the concentration of mRNA-Luc, 125 ng per well, the same as for tested particles. Cells were further cultured for 24 h, then medium was aspirated, and cells were lysed with 30 μL/well of cell culture lysis reagent (Promega). For the characterization of luminescence intensity, 2.5 μL of the lysed cells was mixed with 10 μL of luciferase assay substrate and luminescence was analyzed using a MiniLumat LB 9506 luminometer (Berthold/EG&G; Wallac).
Luminescence characterization for in vitro transfection experiments was performed by determining the luminescence intensity for in vitro Luc-mRNA transfection experiments using a MiniLumat LB 9506 luminometer (Berthold/EG&G; Wallac).
For in vitro Luc-mRNA transfection screening experiments, human embryonic kidney 293 cells (HEK 293) were seeded into 96-well plates (20,000 cells/well/200 μL) and cultured for 18-20 hours at 37° C., 5% CO2 in complete Dulbecco's modified Eagle's medium (DMEM) supplemented with 2 mM L-glutamine (Life Technologies), 100 U/mL penicillin/streptomycin (Invitrogen) and 10% fetal bovine serum (FBS, Gemini Bio-Products). Cells were transfected with DNPs with encapsulated naked nucleoside-modified mRNA encoding firefly luciferase (Luc-mRNA) at constant concentration of Luc-mRNA, 125 ng per well. Luc-mRNA complexed with TransIT (TransIT®-mRNA Transfection Kit, Mirus Bio) or encapsulated in FDA approved MC3-based LNPs were used as positive controls for cell transfection, at the concentration of Luc-mRNA of 125 ng per well, the same as for tested DNPs. After transfection cells were further cultured at 37° C., 5% CO2 for 18-20 hours, then medium was aspirated and cells were lysed with luciferase cell culture lysis reagent (30 μL/well) (Promega, Madison, WI). […]

Data set [3] is described as follows: Dimensions (size, PDI) of DNPs co-assembled from IAJDs and Luc-mRNA by DLS. It counts as physicochemical. The conditions noted are these: CIAJD 4 mg/mL. The method, then: Dynamic Light Scattering (DLS) for the DNPs was performed in buffer with a Malvern Instruments particle sizer (Zetasizer Nano S, Malvern Instruments, UK) equipped with 4 mW He—Ne laser 633 nm and avalanche photodiode positioned at […] to the beam and temperature-controlled cuvette holder. Instrument parameters were determined automatically along with measurement times.
Formulation of DNPs Containing mRNA-Luc: IAJDs were dissolved in ethanol with various initial concentrations (5-160 mg/mL). Nucleoside-modified mRNA encoding firefly luciferase (mRNA-Luc) was dissolved in water with various initial concentrations (1-4 mg/mL). 12.5 μL of mRNA solution was placed into a clean RNAs free eppendorf (1.5 mL) and mixed with 463 μL of citrate buffer (10 mM, pH 3.0)/acetate buffer (10 mM). For encapsulation of mRNA into IAJDs, 25 μL of IAJDs of the ethanol stock solution was rapidly injected into mRNA solution in citrate or acetate buffer followed by vortex for 5 seconds.
Dynamic Light Scattering (DLS) for the sizes and polydispersities of DNPs was performed on a Malvern Instruments particle sizer (Zetasizer Nano S, Malvern Instruments, UK) equipped with 4 mW He—Ne laser 633 nm and avalanche photodiode positioned at […] to the beam and temperature-controlled cuvette holder. Instrument parameters were determined automatically along with measurement times. Sample solution (0.4 mL) was placed in a semi-micro cuvette (1.6 mL, polystyrene, 10×10×45 mm, manufactured by Greiner Bio-One) and the measurements were performed at 23° C.
Formulation of DNPs obtained by co-assembly of IAJDs and Luc-mRNA was performed as follows. IAJDs were dissolved in ethanol with an initial concentration of 80 mg/mL. Nucleoside-modified mRNA encoding firefly luciferase (Luc-mRNA) was dissolved in UltraPure DNase/RNase-free distilled water with an initial concentration of 4.0 mg/mL. 12.5 μL of Luc-mRNA solution was placed into a clean RNAs free eppendorf (1.5 mL) and 463 μL acetate buffer (10 mM, pH 4.0) was added. Then, 25 μL of IAJD in the ethanol stock solution was rapidly injected into the Luc-mRNA solution in acetate buffer followed by vortex for 5 seconds.
Dynamic Light Scattering (DLS) for the dimensions (sizes and polydispersities) of DNPs was performed on a Malvern Instruments particle sizer (Zetasizer Nano S, Malvern Instruments, UK) equipped with 4 mW He—Ne laser 633 nm and avalanche photodiode positioned at 175° to the beam and temperature-controlled cuvette holder. Instrument parameters were set up automatically along with measurement times. Sample solution (c.a. 0.4 mL) was placed in a semi-micro cuvette (1.6 mL, polystyrene, 10×10×45 mm, Greiner Bio-One) and the measurements were performed at 23° C.
Formulation of DNPs Co-assembled from IAJDs and Luc-mRNA: nucleoside-modified mRNA encoding firefly luciferase (Luc-mRNA) was dissolved in UltraPure DNase/RNase-free distilled water with an initial concentration of 4.0 mg/mL. IAJD molecules were dissolved in ethanol with an initial concentration of 80 mg/mL. 12.5 μL of Luc-mRNA solution was taken and placed into a clean RNAs free eppendorf (1.5 mL). Then 463 μL of acetate buffer (10 mM, pH 4.0) was added. Afterwards, 25 μL of IAJD in the ethanol stock solution was taken and rapidly injected into the above Luc-mRNA solution in acetate buffer followed by vortex for 5 seconds.

Setting [4] is: Acetate buffer 10 mM pH 4.0, CLuc-mRNA 0.05 mg/mL.
The mark [5] stands for this setting: Acetate buffer 10 mM pH 5.2, CLuc-mRNA 0.10 mg/mL.
The mark [6] stands for this setting: Citrate buffer 10 mM pH 3.0, CLuc-mRNA 0.05 mg/mL.

As for `CCCCCCCCCCCCOc1cc(OCCCCCCCCCCCC)cc(C(=O)OCC(COC(=O)C(C)(COC(=O)c2cc(OCCOCCOCCOC)c(OCCOCCOCCOC)c(OCCOCCOCCOC)c2)COC(=O)c2cc(OCCOCCOCCOC)c(OCCOCCOCCOC)c(OCCOCCOCCOC)c2)OC(=O)c2cc(OCCCCCCCCCCCC)cc(OCCCCCCCCCCCC)c2)c1` (racemic) [Compound 1rac, (3,5)-12G1-GC-(rac)-BMPA-(3,4,5)-3EO-G1], the PDI in data set [1] (JD 0.025 mg·mL−1 in water) was 0.398; in data set [1] (JD 0.05 mg·mL−1 in water), 0.277; in data set [1] (JD 0.1 mg·mL−1 in water), 0.268; in data set [1] (JD 0.15 mg·mL−1 in water), 0.232; in data set [1] (JD 0.2 mg·mL−1 in water) it was 0.216; in data set [1] (JD 0.25 mg·mL−1 in water), 0.238. For the same compound, the results for the PDI in data set [1] (JD 0.3 mg·mL−1 in water), in data set [1] (JD 0.4 mg·mL−1 in water) and in data set [1] (JD 0.5 mg·mL−1 in water) were 0.203, 0.275 and 0.240, respectively. The “Dh (nm)” value in data set [1] (JD 0.025 mg·mL−1 in water) is given as 86 nm; in data set [1] (JD 0.05 mg·mL−1 in water), 109 nm; in data set [1] (JD 0.1 mg·mL−1 in water), 123 nm; in data set [1] (JD 0.15 mg·mL−1 in water), 128 nm; in data set [1] (JD 0.2 mg·mL−1 in water), 136 nm; in data set [1] (JD 0.25 mg·mL−1 in water) it was 142 nm. In addition, the “Dh (nm)” value in data set [1] (JD 0.3 mg·mL−1 in water) is reported as 153 nm; in data set [1] (JD 0.4 mg·mL−1 in water) it was 174 nm; in data set [1] (JD 0.5 mg·mL−1 in water) it was 281 nm. Besides, the “Number of vesicle layers: 1 (count of vesicles)” value in data set [2] (vesicles with 1 layer) came to 7. For the same compound, in data set [2] (vesicles with 2 layers), the “Number of vesicle layers: 2 (count of vesicles)” value came out at 6. Further, the “Number of vesicle layers: 3 (count of vesicles)” value in data set [2] (vesicles with 3 layers) came out at 2. Also, in data set [2] (vesicles with 4 layers), the “Number of vesicle layers: 4 (count of vesicles)” value is reported as 1. In data set [2] (vesicles with 5 layers), the “Number of vesicle layers: 5 (count of vesicles)” value is given as 1. Also, the “Number of vesicle layers: 6 (count of vesicles)” value in data set [2] (vesicles with 6 layers) is given as 3.

As for “(3,5)-12G2-BMPA-GC-(achiral)-(3,4,5)-3EO-G1 [Compound 4]”, the Luminescence with HEK293T cells (setting [4]) is 3,283; in the data set on HEK293T cells (setting [5]) it was 1,613; in the data set with HEK293T cells (setting [6]), 2,063. The PDI in data set [3] (setting [4]) worked out at 0.330; in data set [3] (setting [5]) it was 0.284; in data set [3] (setting [6]), 0.460. Besides, the results for the “Size (d, nm)” value in data set [3] (setting [4]), in data set [3] (setting [5]) and in data set [3] (setting [6]) were 58 nm, 178 nm and 61 nm, respectively.
